Assay results published in patent US10246429B2, “Vinyl fluoride cyclopropyl fused thiazin-2-amine compounds as beta-secretase inhibitors and methods of use” (AMGEN INC., priority 2015, dated 2019).
pIC50: −log10 of the molar value.

Experiments:
[1] = target: T1, BACE1 (Homo sapiens (Human), UniProt P56817); test: In vitro enzymatic BACE1 FRET assay; assay type: biochemical; conditions: read-out: IC50 IP (μM) BACE1 Enzyme
Target sequence in this assay (P56817 46-501): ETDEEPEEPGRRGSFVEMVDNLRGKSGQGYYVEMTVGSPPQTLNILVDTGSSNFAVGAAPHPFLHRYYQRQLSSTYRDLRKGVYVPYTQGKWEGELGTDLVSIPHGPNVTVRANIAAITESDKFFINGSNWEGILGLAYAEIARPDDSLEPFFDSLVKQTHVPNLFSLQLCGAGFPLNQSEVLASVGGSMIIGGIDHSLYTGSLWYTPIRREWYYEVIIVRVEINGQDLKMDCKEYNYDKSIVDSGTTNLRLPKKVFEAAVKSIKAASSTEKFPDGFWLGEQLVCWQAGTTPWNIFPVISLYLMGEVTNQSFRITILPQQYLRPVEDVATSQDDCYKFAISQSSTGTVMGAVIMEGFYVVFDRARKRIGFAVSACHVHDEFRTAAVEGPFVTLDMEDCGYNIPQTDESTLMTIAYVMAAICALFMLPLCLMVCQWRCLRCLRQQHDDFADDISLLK
Description: (§1) In Vitro Enzymatic BACE1 and BACE2 FRET (Fluorescence Resonance Energy Transfer) Assays (Enzyme Assay Data in Table 1)

[2] = target: T1, BACE1; test: BACE1 cell assay; assay type: cell-based; conditions: for IC50: read-out: IC50 IP (μM) BACE1 Cell
Target sequence in this assay (P56817 46-501, species assumed): as the sequence (P56817 46-501) above

[3] = target: BACE2 (Homo sapiens (Human), UniProt Q9Y5Z0); test: In vitro enzymatic BACE2 FRET assay; assay type: biochemical; conditions: read-out: IC50 IP (μM) BACE2 Enzyme
Chain of BACE2 (Q9Y5Z0 63-518): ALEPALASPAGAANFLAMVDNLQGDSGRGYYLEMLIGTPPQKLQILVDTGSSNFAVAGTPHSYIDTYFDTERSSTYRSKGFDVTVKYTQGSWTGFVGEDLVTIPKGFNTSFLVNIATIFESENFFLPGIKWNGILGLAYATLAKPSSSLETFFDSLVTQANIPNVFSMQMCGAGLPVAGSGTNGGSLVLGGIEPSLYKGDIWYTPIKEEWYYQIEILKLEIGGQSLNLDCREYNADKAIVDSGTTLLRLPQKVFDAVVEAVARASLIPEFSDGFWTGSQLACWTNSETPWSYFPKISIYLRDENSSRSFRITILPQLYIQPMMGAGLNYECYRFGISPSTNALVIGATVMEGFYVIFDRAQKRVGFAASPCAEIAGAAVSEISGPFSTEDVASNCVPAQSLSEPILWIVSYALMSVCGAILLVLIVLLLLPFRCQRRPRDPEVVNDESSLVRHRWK
Description: as §1

[4] = target: Cathepsin D (CatD) (Homo sapiens (Human), UniProt P07339); test: CatD assay; assay type: biochemical; conditions: read-out: IC50 IP (μM) CatD
Chain of Cathepsin D (CatD) (P07339 65-412, species assumed): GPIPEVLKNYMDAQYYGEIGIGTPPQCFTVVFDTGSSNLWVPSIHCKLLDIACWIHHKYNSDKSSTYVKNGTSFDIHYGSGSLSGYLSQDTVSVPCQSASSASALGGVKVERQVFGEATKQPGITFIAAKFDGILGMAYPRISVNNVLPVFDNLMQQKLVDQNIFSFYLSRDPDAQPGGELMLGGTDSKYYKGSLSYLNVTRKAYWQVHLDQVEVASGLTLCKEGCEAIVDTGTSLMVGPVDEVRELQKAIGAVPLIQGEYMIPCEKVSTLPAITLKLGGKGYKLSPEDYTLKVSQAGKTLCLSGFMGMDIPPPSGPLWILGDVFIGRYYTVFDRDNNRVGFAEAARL

C[C@H]1[C@H](O)CCN1C(=O)[C@]12C[C@H]1[C@@](C)(c1cc(/C=C(\F)c3ccc(C#N)cn3)ccc1F)N=C(N)S2 [Example 336, 6-((Z)-2-(3-((1S,5S,6S)-3-amino-1-((2S,3R)-3-hydroxy-2-methylpyrrolidine-1-carbonyl)-5-methyl-2-thia-4-azabicyclo[4.1.0]hept-3-en-5-yl)-4-fluorophenyl)-1-fluorovinyl)nicotinonitrile]
IC50 [1]: 0.0013 µM
IC50 [2]: 0.0005 µM
IC50 [3]: 0.055 µM
IC50 [4]: 151 µM

CN(C)C(=O)[C@]12C[C@H]1[C@@](C)(c1cc(/C=C(\F)c3cn4cc(C#N)ccc4n3)ccc1F)N=C(N)S2 [Example 246, (1S,5S,6S)-3-amino-5-(5-((Z)-2-(6-cyanoimidazo[1,2-a]pyridin-2-yl)-2-fluorovinyl)-2-fluorophenyl)-N,N,5-trimethyl-2-thia-4-azabicyclo[4.1.0]hept-3-ene-1-carboxamide]
IC50 [1]: 0.171 µM
IC50 [2]: 0.05 µM
IC50 [3]: 0.39 µM
IC50 [4]: 53.1 µM

CN(C)C(=O)[C@]12C[C@H]1[C@@](C)(c1cc(/C=C(\F)C#Cc3ccccc3)ccc1F)N=C(N)S2 [Example 207, (1S,5S,6S)-3-amino-5-(2-fluoro-5-((Z)-2-fluoro-4-phenylbut-1-en-3-yn-1-yl)phenyl)-N,N,5-trimethyl-2-thia-4-azabicyclo[4.1.0]hept-3-ene-1-carboxamide]
IC50 [1]: 0.005 µM
IC50 [2]: 0.335 µM
IC50 [3]: 0.018 µM
IC50 [4]: 14.6 µM

CN(C)C(=O)[C@]12C[C@H]1[C@@](C)(c1cc(/C=C(\F)I)ccc1F)N=C(N)S2 [Example 206, (1S,5S,6S)-3-amino-5-(2-fluoro-5-((E)-2-fluoro-2-iodovinyl)phenyl)-N,N,5-trimethyl-2-thia-4-azabicyclo[4.1.0]hept-3-ene-1-carboxamide]
IC50 [1]: 0.01 µM
IC50 [2]: 0.093 µM
IC50 [3]: 0.008 µM
IC50 [4]: 12.2 µM

CC#Cc1cnc(/C(F)=C/c2ccc(F)c([C@@]3(C)N=C(N)S[C@@]4(C(=O)NC)C[C@H]43)c2)cn1 [Example 164, (1S,5S,6S)-3-amino-5-(2-fluoro-5-((Z)-2-fluoro-2-(5-(prop-1-yn-1-yl)pyrazin-2-yl)vinyl)phenyl)-N,5-dimethyl-2-thia-4-azabicyclo[4.1.0]hept-3-ene-1-carboxamide]
IC50 [1]: 0.0125 µM
pIC50 [2]: 7.30
IC50 [3]: 0.229 µM
IC50 [4]: 156 µM

C#Cc1ccc(/C(F)=C/c2ccc(F)c([C@@]3(C)N=C(N)S[C@@]4(C(=O)N(C)C)C[C@H]43)c2)nc1 [Example 110, (1S,5S,6S)-3-amino-5-(5-((Z)-2-(5-ethynylpyridin-2-yl)-2-fluorovinyl)-2-fluorophenyl)-N,N,5-trimethyl-2-thia-4-azabicyclo[4.1.0]hept-3-ene-1-carboxamide]
IC50 [1]: 0.00324 µM
IC50 [2]: 0.0127 µM
IC50 [3]: 0.0144 µM
IC50 [4]: 403 µM

C#CCOc1cnc(/C(F)=C/c2ccc(F)c([C@@]3(C)N=C(N)S[C@@]4(C(=O)N5[C@H]6COC[C@@H]5COC6)C[C@H]43)c2)cn1 [Example 279, ((1S,5S,6S)-3-amino-5-(2-fluoro-5-((Z)-2-fluoro-2-(5-(prop-2-yn-1-yloxy)pyrazin-2-yl)vinyl)phenyl)-5-methyl-2-thia-4-azabicyclo[4.1.0]hept-3-en-1-yl)((1R,5R)-3,7-dioxa-9-azabicyclo[3.3.1]nonan-9-yl)methanone]
IC50 [1]: 0.0012 µM
IC50 [2]: 0.001 µM
IC50 [3]: 0.176 µM
IC50 [4]: 42 µM

CC[C@H]1COCCN1C(=O)[C@]12C[C@H]1[C@@](C)(c1cc(/C=C(\F)c3ccc(C#N)cn3)ccc1F)N=C(N)S2 [Example 334, 6-((Z)-2-(3-((1S,5S,6S)-3-amino-1-((S)-3-ethylmorpholine-4-carbonyl)-5-methyl-2-thia-4-azabicyclo[4.1.0]hept-3-en-5-yl)-4-fluorophenyl)-1-fluorovinyl)nicotinonitrile]
IC50 [1]: 0.0064 µM
IC50 [2]: 0.0041 µM
IC50 [3]: 0.146 µM
IC50 [4]: 19 µM

Cc1cnc([C@]23C[C@H]2[C@@](C)(c2cc(/C=C(\F)c4ccc(C#N)cn4)ccc2F)N=C(N)S3)o1 [Example 344, 6-((Z)-2-(3-((1S,5S,6S)-3-amino-5-methyl-1-(5-methyloxazol-2-yl)-2-thia-4-azabicyclo[4.1.0]hept-3-en-5-yl)-4-fluorophenyl)-1-fluorovinyl)nicotinonitrile]
IC50 [1]: 0.0033 µM
IC50 [2]: 0.0285 µM
IC50 [3]: 0.18 µM
IC50 [4]: 227 µM

CN(C)C(=O)[C@]12C[C@H]1[C@@](C)(c1cc(/C=C(\F)c3cnc(C#N)cn3)cnc1F)N=C(N)S2 [Example 296, (1S,5S,6S)-3-amino-5-(5-((Z)-2-(5-cyanopyrazin-2-yl)-2-fluorovinyl)-2-fluoropyridin-3-yl)-N,N,5-trimethyl-2-thia-4-azabicyclo[4.1.0]hept-3-ene-1-carboxamide]
IC50 [1]: 0.0119 µM
pIC50 [2]: 7.36
IC50 [3]: 0.037 µM
IC50 [4]: 290 µM

COC(=O)[C@H]1CCCN1C(=O)[C@]12C[C@H]1[C@@](C)(c1cc(/C=C(\F)c3ccc(C#N)cn3)ccc1F)N=C(N)S2 [Example 130, (R)-methyl 1-((1S,5S,6S)-3-amino-5-(5-((Z)-2-(5-cyanopyridin-2-yl)-2-fluorovinyl)-2-fluorophenyl)-5-methyl-2-thia-4-azabicyclo[4.1.0]hept-3-ene-1-carbonyl)pyrrolidine-2-carboxylate bis(2,2,2-trifluoroacetate)]
IC50 [1]: 0.0034 µM
IC50 [2]: 0.00747 µM
IC50 [3]: 0.121 µM
IC50 [4]: 120 µM

C[C@]1(c2cc(/C=C(\F)c3ccc(C#N)cn3)ccc2F)N=C(N)S[C@@]2(C(N)=O)C[C@H]21 [Example 243, (1S,5S,6S)-3-amino-5-(5-((Z)-2-(5-cyanopyridin-2-yl)-2-fluorovinyl)-2-fluorophenyl)-5-methyl-2-thia-4-azabicyclo[4.1.0]hept-3-ene-1-carboxamide]
IC50 [1]: 0.003 µM
pIC50 [2]: 8.66
IC50 [3]: 0.043 µM
IC50 [4]: 412 µM

C[C@]1(c2cc(/C=C(\F)c3ccc(C#N)cn3)ccc2F)N=C(N)S[C@@]2(C(=O)N3CC4CCC(C3)O4)C[C@H]21 [Example 319]
IC50 [1]: 0.0025 µM
IC50 [2]: 0.0017 µM
IC50 [3]: 0.097 µM
IC50 [4]: 318 µM

CNC(=O)[C@]12C[C@H]1[C@@](C)(c1cc(/C=C(\F)c3ccc(C#CC4(C)COC4)cn3)ccc1F)N=C(N)S2 [Example 360, (1S,5S,6S)-3-amino-5-(2-fluoro-5-((Z)-2-fluoro-2-(5-((3-methyloxetan-3-yl)ethynyl)pyridin-2-yl)vinyl)phenyl)-N,5-dimethyl-2-thia-4-azabicyclo[4.1.0]hept-3-ene-1-carboxamide]
IC50 [1]: 0.15 µM
IC50 [2]: 0.636 µM
IC50 [3]: 0.756 µM
IC50 [4]: 72.5 µM

COC[C@]12C[C@H]1[C@@](C)(c1cc(/C=C(\F)c3cnc(OCC4COC4)cn3)ccc1F)N=C(N)S2 [Example 272]
IC50 [1]: 3.04 µM
IC50 [2]: 2.53 µM
IC50 [3]: 4.02 µM
IC50 [4]: 864 µM

C[C@]1(c2cc(/C=C(\F)c3ccc(C#C[Si](C)(C)C)cn3)ccc2F)N=C(N)S[C@@]2(C(=O)N3CCOCC3)C[C@H]21 [Example 354, ((1S,5S,6S)-3-amino-5-(2-fluoro-5-((Z)-2-fluoro-2-(5-((trimethylsilyl)ethynyl)pyridin-2-yl)vinyl)phenyl)-5-methyl-2-thia-4-azabicyclo[4.1.0]hept-3-en-1-yl)(morpholino)methanone]
IC50 [1]: 0.013 µM
IC50 [2]: 0.058 µM
IC50 [3]: 0.412 µM
IC50 [4]: 26 µM
